Measurements reported in article PMC13112199 (Nature nanotechnology, 2025).
Entries after “also recorded” stand apart in the source; their conditions may differ.

Tests used:
[1] = UPLC in vitro release assay of small molecules from MDP hydrogels; assay type: physicochemical
[2] = female, BALB/c, mouse, in vivo, sc
[3] = Bortezomib pharmacokinetics after subcutaneous injection; conditions: 175 ng sc, alone without hydrogel
[4] = Boronate ester association; assay type: physicochemical; conditions: SHA vs catechol, across boronic acids
[5] = UV–vis stability of dynamic covalent bonding motifs in solution; conditions: pH 7.4 PBS, over 15 days
[6] = Stability of ganfeborole loaded in hydrogels quantified by UPLC; assay type: physicochemical
M. tuberculosis H37Rv = experiment: Mouse model of acute tuberculosis, lung CFU counts; assay type: in vivo, Mycobacterium tuberculosis; conditions: for reduction of colony-forming units in lungs: 600 μg single sc injection without hydrogel; for reduction in bacterial burden compared with vehicle control: ten oral doses of 60 μg
[7] = high doses; cited from earlier work
[8] = Ganfeborole pharmacokinetics after subcutaneous injection
blood glucose levels = experiment: Mouse type 1 diabetes model, blood glucose control; assay type: in vivo; conditions: 3 IU sc without a hydrogel, diabetic mice
[9] = from Cat-K2 hydrogel, first 2 h
[10] = from nitroCat-K2 hydrogel, 24 h
[11] = from unmodified K2 hydrogel, first 2 h, 10 mg ml^-1 peptide, PBS, 37 °C
[12] = 600 μg in SHA-E2, non-compartmental analysis
[13] = 600 μg in SHA-K2 vs drug alone, non-compartmental analysis

Compound: CC(C)C[C@H](NC(=O)[C@H](Cc1ccccc1)NC(=O)c1cnccn1)B(O)O [bortezomib]
- drug released in vitro [1, 9]: > 57.1%
- glucose dependence of in vitro release ([1]; from SHA-K2, physiologically relevant glucose range): independent of glucose concentration
- drug released in vitro ([1]; from SHA-K2 hydrogel, 2 h): 15–25%
- drug released in vitro ([1]; from SHA-K2 hydrogel, 24 h): 50–70%
- drug released in vitro ([1]; from nitroCat-K2 hydrogel, 2 h): 15–25%
- drug released in vitro [1, 10]: 50–70%
- drug released in vitro [1, 11]: > 82.3%
- blood concentration at 336 h relative to peak-matched 175 ng control [2]: 2.7 fold
- maximum concentration [3]: 21.2 ± 3.1 ng/mL

Compound: OB1OCc2cc(F)ccc21 [tavaborole]
- drug released in vitro ([1]; from Cat-K2 hydrogel, 24 h): 80.0 ± 4.7%
- drug released in vitro ([1]; from SHA-K2 hydrogel, 24 h): 49.1 ± 0.3%
- drug released in vitro [1, 10]: 64.8 ± 0.9%

Compound: O=C(NO)c1ccccc1O [SHA, salicylhydroxamic acid]
- boronate ester association constant relative to catechol association constants [4]: 6.5- to 9.6 fold
- stability in solution by UV–vis [5]: excellent stability over 15 days in solution

Compound: NC[C@H]1OB(O)c2c(OCCO)ccc(Cl)c21 [ganfeborole]
- in vitro release rate ([1]; from K2 hydrogel): similarly rapid release rates
- drug released in vitro ([1]; from K2 hydrogel, 30 min): 59.0 ± 1.1%
- in vitro release ([1]; from SHA-E2 hydrogel, loaded at 0.5 mg ml^-1): significantly slowed the release; also recorded: performed similarly to SHA-K2
- drug released in vitro ([1]; from SHA-K2 hydrogel, 24 h): 48.7 ± 2.5%
- in vitro release rate ([1]; from SHA-K2 hydrogel, compared with K2): significantly extend the release
- in vitro release rate ([1]; from nitroCat-K2 hydrogel): similarly rapid release rates
- stability of drug loaded in hydrogel ([6]; in Cat-K2): rapid oxidative degradation; also recorded: rapidly degrades the compound
- stability of drug loaded in hydrogel ([6]; in K2, nitroCat-K2 and SHA-K2 (all hydrogels except Cat-K2), two weeks): majority of the drug remains stable over the course of two weeks
- bacterial burden reduction compared with oral dosing (M. tuberculosis H37Rv; 600 μg single injection in SHA-E2 vs ten oral doses): ~10 fold
- reduction in bacterial lung burden compared with vehicle control (M. tuberculosis H37Rv; 600 μg single sc injection in SHA-E2, 7 days): 2.58 log10
- reduction in bacterial lung burden compared with vehicle control (M. tuberculosis H37Rv; 600 μg single sc injection in SHA-E2, 14 days): 4.12 log10
- reduction of colony-forming units in lungs (M. tuberculosis H37Rv; 7 days): 0.95 log10
- reduction of colony-forming units in lungs (M. tuberculosis H37Rv; 14 days): 1.55 log10
- reduction in bacterial burden compared with vehicle control (M. tuberculosis H37Rv; 7 days): 1.67 log10
- reduction in bacterial burden compared with vehicle control (M. tuberculosis H37Rv; 14 days): 3.32 log10
- tolerability in humans [7]: well tolerated in humans at high doses
- in vivo release ([8]; 75 μg sc in 50 μl of 10 mg ml^-1 K2): unable to prolong drug release in vivo
- duration of concentration above the EC50 relative to other groups ([8]; 75 μg sc in 50 μl of 10 mg ml^-1 SHA-K2, EC50 ref 51): over 4 fold
- in vivo release ([8]; 75 μg sc in 50 μl of 10 mg ml^-1 nitroCat-K2): unable to prolong drug release in vivo
- in vivo release compared with unmodified E2 hydrogel ([8]; 600 μg in 200 μl of 20 mg ml^-1 SHA-E2): prolongs drug release
- enhancement of half-life compared with ganfeborole alone ([8]; 600 μg in SHA-E2): over 10 fold
- effect on Cmax [8, 12]: reduces the maximum circulating concentration
- effect on drug exposure (AUC) [8, 12]: improves drug exposure
- effect on Cmax ([8]; 600 μg in SHA-K2 vs drug alone): reducing the maximum drug concentration
- improvement of AUC [8, 13]: 2.8 fold
- increase of half-life [8, 13]: 6.5 fold

Compound: insulin: commercially purchased unmodified insulin
- time until mice became hyperglycemic again (blood glucose levels): ≤ 4 h
- time until mice became hyperglycemic again (blood glucose levels; listed as unmodified insulin): less than 4 h

Compound: COCCOc1nc(N)c2[nH]c(=O)n(Cc3ccc(C(=O)O)cc3)c2n1 [Compound 1V209]
- in vitro release kinetics from SABER hydrogels ([1]; drug without BA, SABER hydrogels vs K2): no altered release kinetics were observed

Compound: CC(C)C[C@H](NC(=O)CNC(=O)c1cc(Cl)ccc1Cl)B(O)O [ixazomib]
- drug released in vitro [1, 9]: > 57.1%
- drug released in vitro ([1]; from SHA-K2 hydrogel, 2 h): 15–25%
- drug released in vitro ([1]; from SHA-K2 hydrogel, 24 h): 50–70%
- drug released in vitro ([1]; from nitroCat-K2 hydrogel, 2 h): 15–25%
- drug released in vitro [1, 10]: 50–70%
- drug released in vitro [1, 11]: > 82.3%
